In US6495567B1, “Triaryl methane compounds and their use in the treatment of diarrhea and scours” (Beth Israel Deaconess Medical Center, priority 1996, dated 2002):
Read-outs that look alike come from different tables or passages of the source.

Columns and labels:
basolateral K+ channels = experiment: Basolateral K+ conductance in T84 monolayers permeabilized apically with amphotericin B; type: cell-based, human
Description: Selective mebrane Permeabilization and Measurement of Potassium Conductance of the Basolateral Membrane. The basolateral potassium conductance was measured using the technique developed by Dawson and co-workers. A potassium gradient (mucosal to serosal) was first established across the monolayer using asymmetric mucosal and serosal buffers containing K^+ as the sole permeant ion. The addition of amphotericin B (20 μM) to the mucosal reservoir forms conductive pores in the apical membrane, and thus removes all resistance to transepithelial potassium movement across this membrane. Thus, under the conditions of the experiment, in which the monolayer is short circuited (i.e., voltage-clamped at zero potential) and the transepithehal potassium gradient is constant, the amphotericin-dependent Isc becomes a measure of the rate of the transepithelial potassium flux across basolateral membranes. Changes in short circuit current (Isc), then represent changes in basolateral K^+ conductances (gK). Isc and K^+ conductances were measured using calomel electrodes, 3M KCI-agar bridges, and a voltage clamp (University of Iowa, Iowa City). To generate a voltage-current channel relationships, currents were elicited by 1 sec test potentials from −80 to +80 in 10 mV increments in the asymmetrical high K^+ gluconate solution.
Calculation of Basolateral Membrane K^+ Permeability: Membrane Permeabilities were Calculated According to the Formula:
^PK=(cm/s)=^JK(mM/cm^2·s)/Δ[K^+](mM/cm^3)
where Δ[K^+] is equal to the difference in K^+ concentration (135 mM) between the asymmetric apical and basolateral bathing solutions. Maximal Isc values were converted into K^+ fluxes by dividing by the Faraday constant F (96,500 coulombs/mol) as previously described (Huflejt et al., J. Clin. Invest. 93: 1900-1910 (1994)).
Basolateral K+ transport was examined in T84 monolayers permeabilized apically by pretreatment with amphotericin B. Apical and basolateral buffers contained K+ as the sole permeant ion. All studies were performed with a 135 mM basolaterally directed K+ gradient. This method has been utilized previously to examine both Cl— and K+ transport in T84 cells and HT29-Cl.16E cells. Briefly, ion conductances in the luminal or basolateral membranes of confluent T84 cell monolayers can be assessed separately by selectively permeabilizing the apical or basolateral membrane using the ionophore amphotericin B. This artificially removes all electrical resistance to ion transport across the plasma membrane containing pores formed by amphotericin B. As a result, the intact contralateral plasma membrane becomes rate limiting for transepithelial ion transport. Agonist-dependent changes in ion conductances can be assessed directly either as transepithelial short circuit current (Isc) in the presence of established ion gradients, or as transepithelial conductance (G) in the presence of established transepithelial potentials.

T84 cells = experiment: Electrogenic Cl- secretion (short circuit current, Isc) in confluent T84 monolayers; type: cell-based, human
basolateral K+ channel = experiment: 86Rb efflux from T84 monolayers (K+ channel activity); type: cell-based, human
Description: (§1) After four baseline samples were obtained, the cells were treated (at t=8 minutes) with vasoactive intestinal peptide (VIP, […]) or thapsigargin (5 μM) to stimulate Cl^− secretion, and an additional 15 timed samples were obtained. Finally, the cell monolayer was rinsed, cut with its support from the polystyrene ring, and the residual cell-associated radioactivity was determined. Monolayers were maintained at 37° C. in room air throughout the study. ^86Rb was counted by scintillation counting and normalized to percent total uptake as previously described (Venglarik, et al, Am. J. Physiol. (Cell Physiol. 28):C358-C364 (1990).

[1] = test system: apical membrane Cl- channels; experiment: 125I efflux from T84 monolayers; type: cell-based, human
Description: as §1, with “Cl—” for “Cl^−”, “^125I” for “^86Rb”, “gamma” for “scintillation”

[2] = test system: apical membrane Cl- channels; experiment: Apical Cl- conductance in T84 monolayers permeabilized basolaterally with amphotericin B; type: cell-based, human; conditions: symmetrical Cl- 142 mM; forskolin 10 μM
rabbit colonic mucosa = experiment: Ussing chamber studies using rabbit colonic mucosa; conditions: clotrimazole 30 μM; forskolin 10 μM
Description: 4 male, New Zealand rabbits (2.5 kg) were anesthetized by an intravenous injection of pentobarbital (0.5 ml/kg). A 15 cm length of distal colon was removed and opened longitudinally. […] The volume of fluid on each side of the mucosa was 7 ml.
Potential difference and Isc were monitored continuously and registered every 10 minutes.

[3] = test system: intestinal fluid secretion induced by cholera toxin; type: in vivo, Balb/C mice
[4] = test system: basolateral NaK2Cl cotransporters
[5] = test system: basolateral NaK2Cl cotransporters; experiment: Bumetanide-sensitive 86Rb uptake in T84 monolayers; conditions: 33 μM for 30 min
[6] = forskolin 10 μM, carbachol 100 μM
[7] = 33 μM, final 30 minutes of preincubation

C[N+](C)(C)CCOC(N)=O [carbachol]
Carbachol-induced IscK, carbachol added alone (basolateral K+ channels; apically permeabilized monolayers): 111.7±7.4 μA/cm^2
Carbachol-induced IscK, carbachol added after forskolin (basolateral K+ channels; apically permeabilized monolayers, forskolin 10 μM): 180.7±15.7 μA/cm^2

Clc1ccc(COC(Cn2ccnc2)c2ccc(Cl)cc2Cl)c(Cl)c1 (stereo not shown) [miconazole]
Inhibition of cAMP and Ca++ elicited chloride secretion (T84 cells; T84 cells): effective at inhibiting chloride secretion

charybdotoxin
Inhibition of Cl- secretory response (Isc) to Ca++-dependent agonist carbachol (T84 cells): strongly inhibited
Inhibition of Cl- secretory response (Isc) to cAMP mediated agonist VIP (T84 cells): minimal affects
Effect on K+ transport induced by subsequent addition of forskolin (basolateral K+ channels; charybdotoxin 100 nM): no detectable effect
Inhibition of carbachol induced Ca++ IK (basolateral K+ channels; pretreatment with charybdotoxin 100 nM): 50%

Clc1ccc(COC(Cn2ccnc2)c2ccc(Cl)cc2Cl)cc1 (stereo not shown) [econazole]
Inhibition of cAMP and Ca++ elicited chloride secretion (T84 cells; T84 cells): effective at inhibiting chloride secretion

OC(c1ccccc1)(c1ccccc1)c1ccccc1Cl [2-chlorophenyl-bis-phenyl methanol]
Inhibition of cAMP and Ca++ elicited chloride secretion (T84 cells; T84 cells): effective at inhibiting chloride secretion
Inhibition of time course of K+ transport after forskolin and carbachol (basolateral K+ channels; [6]): Nearly identical results

C[C@@H]1[C@H](O)[C@@H](C)/C=C/C=C/C=C/C=C/C=C/C=C/C=C/[C@H](O[C@@H]2O[C@H](C)[C@@H](O)[C@H](N)[C@@H]2O)C[C@@H]2O[C@](O)(C[C@@H](O)C[C@@H](O)[C@H](O)CC[C@@H](O)C[C@@H](O)CC(=O)O[C@H]1C)C[C@H](O)[C@H]2C(=O)O [amphotericin B]
Increase in conductance on initial permeabilization (basolateral K+ channels; amphotericin B apical): 49±19%

CC(=O)N1CCN(c2ccc(OCC3COC(Cn4ccnc4)(c4ccc(Cl)cc4Cl)O3)cc2)CC1 (stereo not shown) [ketoconazole]
Inhibition of cAMP and Ca++ elicited chloride secretion (T84 cells; T84 cells): effective at inhibiting chloride secretion

Clc1ccccc1C(c1ccccc1)(c1ccccc1)n1ccnc1 [clotrimazole]
IC50 (T84 cells; Homo sapiens, T84, read-out: IC50 for inhibition of secretory response to E. Coli heat-stabile toxin): 15 µM
Inhibition of cAMP and Ca++ elicited chloride secretion (T84 cells; T84 cells): most potent inhibitor tested
Inhibition of Cl- secretory response (Isc) to cAMP mediated agonist VIP (T84 cells; T84 cells, VIP 5 nM, BaCl 3 mM, charybdotoxin 100 nM): inhibited
Inhibition of Cl- secretory response (Isc) to Ca++-dependent agonist carbachol (T84 cells; T84 cells, carbachol 100 mM, BaCl 3 mM, charybdotoxin 100 nM): inhibited
Apparent potency of inhibition at a fixed time point, basolateral versus apical application (T84 cells; T84 monolayers): greater when applied basolaterally than apically
Inhibition with basolateral application alone compared with both sides of the monolayer (T84 cells; T84 monolayers): almost as effective as incubation on both sides
Reversibility of inhibition of Cl- secretion (T84 cells; after 60 min recovery in the presence of 0.01 mg/ml bovine serum albumin, n=4): 96±2%
Potentiation of Cl- secretory responses to either agonist at low doses (T84 cells; low doses (=10^-7 or less)): 5-10%
Inhibition of secretory response to agonists of the cAMP signalling cascade (T84 cells; preincubation 33 μM, 5 μM VIP, 10 μM forskolin or 3 mM 8Br-cAMP): inhibited
Inhibition of Cl- secretory response to Ca++-dependent agonists (T84 cells; pretreatment 33 μM, carbachol 100 μM, thapsigargin 5 μM or ionomycin 10 μm): inhibited strongly
Inhibition of the synergistic secretory response to VIP plus carbachol (T84 cells; same monolayers): parallel the inhibition of secretion promoted by Ca^++ agonists alone
Reduction of rate constant for VIP-stimulated 86Rb efflux (basolateral K+ channel; 33 µM): 87%
Rate constant for VIP-stimulated 86Rb efflux (basolateral K+ channel; 33 μM clotrimazole, untreated 0.0465): 0.0062 % uptake/minute
Rate constant for thapsigargin-stimulated 86Rb efflux (basolateral K+ channel; 33 μM clotrimazole, untreated 0.048, n=2): 0.011 % uptake/minute
Effect of pretreatment on 86Rb loading of the cells (basolateral K+ channel; [7]): did not alter
Inhibition of baseline and Ca++ stimulated 86RB efflux (basolateral K+ channel; T84 cells with VIP or thapsigargin): significantly inhibited
Effect on time course of 125I efflux from monolayers treated with VIP ([1]; 33 μM clotrimazole): little or no effect
Effect of pretreatment on 125I loading of the cells [1, 7]: did not alter
Rate constant for 125I efflux ([1]; VIP, 33 μM clotrimazole, not treated 0.0645, n=2 in duplicate): 0.0637 % uptake/minute
Inhibition of time course of K+ transport after forskolin and carbachol (basolateral K+ channels; [6]): significantly inhibited
Effect on forskolin- or thapsigargin-stimulated Cl- conductances [2]: no detectable effect
Inhibition of time course of forskolin induced Isc (rabbit colonic mucosa): inhibited strongly
Reduction of intestinal fluid secretion induced by cholera toxin ([3]; 5 hours): 86%
Effect on intestinal secretion in the absence of cholera toxin ([3]; mouse, in vivo): no effect
Bumetanide-sensitive fractional component of 86Rb uptake [4]: 88±3.2 % total uptake
Reduction of total amount of 86Rb uptake ([5]; VIP, mean±SEM, n=6): 53.6±15.8%
Effect on bumetanide-sensitive fractional component of 86Rb uptake ([5]; bumetanide 10 μM): no effect

[Ba+2].[Cl-].[Cl-] [BaCl2]
Inhibition of Cl- secretory response (Isc) to Ca++-dependent agonist carbachol (T84 cells): no apparent affect
Inhibition of Cl- secretory response (Isc) to cAMP mediated agonist VIP (T84 cells): strongly inhibited
Effect on K+ transport induced by subsequent addition of carbachol (basolateral K+ channels; carbachol 100 μM, same monolayers, BaCl2 3 mM): no detectable effect
Inhibition of cAMP-sensitive IK elicited by forskolin (basolateral K+ channels; forskolin 10 μM, BaCl2 3 mM basolateral): greater than 70%
